Laboratory results from PubChem BioAssay (NCI).
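Cells were grown in 96-well plates and exposed to each compound for 48 hours at five concentrations; endpoints were interpolated linearly between bracketing concentrations, or set to the highest concentration if not reached. The concentration for full growth arrest is given as TGI.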

Experiments:
Experiment in all cases: DTP human tumour cell line panel, 48 h
[1] = tested on: HS 578T breast
[2] = tested on: CAKI-1 renal
[3] = tested on: SK-MEL-2 melanoma
[4] = tested on: OVCAR-4 ovarian
[5] = tested on: NCI-H23 lung
[6] = tested on: HOP-92 NSCLC
[7] = tested on: K-562 leukemia
[8] = tested on: MDA-MB-231 breast
[9] = tested on: NCI/ADR-RES ovarian
[10] = tested on: HCT-15 colon
[11] = tested on: MDA-N
[12] = tested on: T-47D breast
[13] = tested on: HT29 colon
[14] = tested on: KM12 colon
[15] = tested on: CCRF-CEM leukemia
[16] = tested on: UACC-257 melanoma
[17] = tested on: UO-31 renal
[18] = tested on: RXF 393 renal
[19] = tested on: DU-145 prostate
[20] = tested on: SNB-19 CNS
[21] = tested on: NCI-H522 lung
[22] = tested on: ACHN renal
[23] = tested on: MOLT-4 leukemia
[24] = tested on: HOP-62 NSCLC
[25] = tested on: A549 NSCLC
[26] = tested on: IGROV1 ovarian
[27] = tested on: SR leukemia
[28] = tested on: PC-3 prostate
[29] = tested on: SK-MEL-28 melanoma
[30] = tested on: SK-OV-3 ovarian
[31] = tested on: U251 CNS
[32] = tested on: HCT-116 colon
[33] = tested on: HCC-2998 colon
[34] = tested on: NCI-H460 lung
[35] = tested on: MCF7 breast
[36] = tested on: COLO 205 colon
[37] = tested on: MALME-3M melanoma
[38] = tested on: 786-0 renal
[39] = tested on: EKVX NSCLC
[40] = tested on: OVCAR-3 ovarian
[41] = tested on: M14 melanoma
[42] = tested on: UACC-62 melanoma
[43] = tested on: A498 renal
[44] = tested on: SW-620 colon
[45] = tested on: SF-295 CNS
[46] = tested on: MDA-MB-435
[47] = tested on: OVCAR-5 ovarian
[48] = tested on: SK-MEL-5 melanoma
[49] = tested on: RPMI-8226 leukemia
[50] = tested on: OVCAR-8 ovarian
[51] = tested on: SF-268 CNS
[52] = tested on: LOX IMVI melanoma
[53] = tested on: SN12C renal
[54] = tested on: SF-539 CNS
[55] = tested on: NCI-H226 lung
[56] = tested on: TK-10 renal
[57] = tested on: SNB-75 CNS
[58] = tested on: HL-60(TB) leukemia

## COC1OC(Cn2cc([N+](=O)[O-])nc2C)C(O)C(O)C1O (stereo not given)
[1]
  TGI: > 100 µM
[2]
  TGI: > 100 µM
[3]
  TGI: > 100 µM
[4]
  TGI: > 100 µM
[5]
  TGI: > 100 µM
[6]
  TGI: > 100 µM
[7]
  TGI: > 100 µM
[8]
  TGI: > 100 µM
[9]
  TGI: > 100 µM
[10]
  TGI: > 100 µM
[11]
  TGI: > 100 µM
[12]
  TGI: > 100 µM
[13]
  TGI: > 100 µM
[14]
  TGI: > 100 µM
[15]
  TGI: > 100 µM
[16]
  TGI: > 100 µM
[17]
  TGI: > 100 µM
[18]
  TGI: > 100 µM
[19]
  TGI: > 100 µM
[20]
  TGI: > 100 µM
[21]
  TGI: > 100 µM
[22]
  TGI: > 100 µM
[23]
  TGI: > 100 µM
[24]
  TGI: > 100 µM
[25]
  TGI: > 100 µM
[26]
  TGI: > 100 µM
[27]
  TGI: > 100 µM
[28]
  TGI: > 100 µM
[29]
  TGI: > 100 µM
[30]
  TGI: > 100 µM
[31]
  TGI: > 100 µM
[32]
  TGI: > 100 µM
[33]
  TGI: > 100 µM
[34]
  TGI: > 100 µM
[35]
  TGI: > 100 µM
[36]
  TGI: > 100 µM
[37]
  TGI: > 100 µM
[38]
  TGI: > 100 µM
[39]
  TGI: > 100 µM
[40]
  TGI: > 100 µM
[41]
  TGI: > 100 µM
[42]
  TGI: > 100 µM
[43]
  TGI: > 100 µM
[44]
  TGI: > 100 µM
[45]
  TGI: > 100 µM
[46]
  TGI: > 100 µM
[47]
  TGI: > 100 µM
[48]
  TGI: > 100 µM
[49]
  TGI: > 100 µM

## CCOC(=O)/C(=C\c1c(C)[nH]c2ccccc12)P(=O)(OCC)OCC
[1]
  TGI: > 100 µM
[50]
  TGI: > 100 µM
[2]
  TGI: > 100 µM
[4]
  TGI: > 100 µM
[5]
  TGI: > 100 µM
[7]
  TGI: > 100 µM
[8]
  TGI: > 100 µM
[9]
  TGI: > 100 µM
[10]
  TGI: > 100 µM
[51]
  TGI: > 100 µM
[11]
  TGI: > 100 µM
[12]
  TGI: > 100 µM
[13]
  TGI: > 100 µM
[14]
  TGI: > 100 µM
[52]
  TGI: > 100 µM
[16]
  TGI: > 100 µM
[53]
  TGI: > 100 µM
[18]
  TGI: > 100 µM
[19]
  TGI: > 100 µM
[20]
  TGI: > 100 µM
[54]
  TGI: > 100 µM
[21]
  TGI: > 100 µM
[22]
  TGI: > 100 µM
[23]
  TGI: > 100 µM
[24]
  TGI: > 100 µM
[55]
  TGI: > 100 µM
[25]
  TGI: > 100 µM
[26]
  TGI: > 100 µM
[27]
  TGI: > 100 µM
[29]
  TGI: > 100 µM
[30]
  TGI: > 100 µM
[31]
  TGI: > 100 µM
[32]
  TGI: > 100 µM
[33]
  TGI: > 100 µM
[34]
  TGI: > 100 µM
[35]
  TGI: > 100 µM
[36]
  TGI: > 100 µM
[37]
  TGI: > 100 µM
[38]
  TGI: > 100 µM
[39]
  TGI: > 100 µM
[40]
  TGI: > 100 µM
[56]
  TGI: > 100 µM
[57]
  TGI: > 100 µM
[41]
  TGI: > 100 µM
[42]
  TGI: > 100 µM
[43]
  TGI: > 100 µM
[44]
  TGI: > 100 µM
[45]
  TGI: > 100 µM
[46]
  TGI: > 100 µM
[47]
  TGI: > 100 µM
[48]
  TGI: > 100 µM
[49]
  TGI: > 100 µM

## O=c1c2ccccc2nc(N/N=C/c2ccc(Cl)cc2)n1-c1ccccc1
[50]
  TGI: > 100 µM
[2]
  TGI: > 100 µM
[3]
  TGI: 77.2 µM
[4]
  TGI: > 100 µM
[5]
  TGI: > 100 µM
[6]
  TGI: > 100 µM
[7]
  TGI: > 100 µM
[8]
  TGI: > 100 µM
[9]
  TGI: > 100 µM
[10]
  TGI: > 100 µM
[51]
  TGI: > 100 µM
[11]
  TGI: > 100 µM
[12]
  TGI: > 100 µM
[13]
  TGI: > 100 µM
[52]
  TGI: > 100 µM
[15]
  TGI: > 100 µM
[16]
  TGI: > 100 µM
[17]
  TGI: 88 µM
[53]
  TGI: > 100 µM
[18]
  TGI: > 100 µM
[19]
  TGI: > 100 µM
[20]
  TGI: > 100 µM
[54]
  TGI: > 100 µM
[21]
  TGI: > 100 µM
[22]
  TGI: > 100 µM
[23]
  TGI: > 100 µM
[24]
  TGI: > 100 µM
[55]
  TGI: > 100 µM
[25]
  TGI: > 100 µM
[26]
  TGI: > 100 µM
[27]
  TGI: > 100 µM
[28]
  TGI: > 100 µM
[29]
  TGI: > 100 µM
[30]
  TGI: > 100 µM
[31]
  TGI: > 100 µM
[32]
  TGI: > 100 µM
[33]
  TGI: > 100 µM
[34]
  TGI: > 100 µM
[35]
  TGI: > 100 µM
[36]
  TGI: > 100 µM
[37]
  TGI: > 100 µM
[38]
  TGI: > 100 µM
[39]
  TGI: > 100 µM
[40]
  TGI: > 100 µM
[56]
  TGI: > 100 µM
[41]
  TGI: > 100 µM
[42]
  TGI: > 100 µM
[43]
  TGI: > 100 µM
[44]
  TGI: > 100 µM
[45]
  TGI: > 100 µM
[46]
  TGI: > 100 µM
[47]
  TGI: > 100 µM
[48]
  TGI: > 100 µM
[58]
  TGI: > 100 µM
